For this assay, the system named is R2/PCFT4 (CHO). The assay can be described thus: proliferation assay, R2/PCFT4 CHO cells expressing PCFT only. The assay is classed as cell-based, Chinese hamster. As to conditions: Cricetulus griseus, folate-/glycine-free RPMI1640 with 25 nM leucovorin, 96 h, drug 0-1000 nM, read-out: IC50s (SE) R2/PCFT4 (CHO).

Results on one compound are retold here after patent US20230091810A1, “FIRST-IN-CLASS OF SHMT2 AND MTHFD2 INHIBITORS AS ANTITUMOR AGENTS” (Duquesne University of the Holy Spirit, priority 2017, published 2023).

Procedure: Proliferation assays were performed with engineered Chinese hamster ovary (CHO) cell lines R2 (transporter-null), PC43-10 (expresses RFC only), RT16 (FRα only), and R2/PCFT4 (PCFT only) cultured in folate-/glycine-free RPMI1640 supplemented with 25 nM leucovorin.
Cell culture and proliferation/protection assays. […] Cell lines were verified by STR analysis by Genetica DNA Laboratories (Burlington, NC). MTXRIIOua^R2-4 (i.e. R2) Chinese hamster ovary (CHO) cells were generously provided by Dr. Wayne Flintoff (University of Western Ontario) (54). […]
For proliferation assays with the CHO cell lines, the cells were treated with drugs (0-1 µM) in a 96-well plate (2000 cells/well) in glycine-free, nucleoside-free folate-free RPMI supplemented with 10% dialyzed fetal bovine serum, 1% penicillin/streptomycin, 2 mM L-glutamine, and 25 nM leucovorin (final volume 200 µL) over a 96 h incubation period at 37° C. with 5% CO2. […] To quantify viable cells, the media was removed and plates were washed once with 100 µL Dulbecco’s Phosphate-Buffered Saline (PBS), after which 100 µL PBS and 20 µL Cell Titer-blue (Promega) were added. Relative cell numbers were proportional to the fluorescence measured with a fluorescence plate reader (590 nm emission, 560 nm excitation).

Turning to `Nc1nc2ccn(CCCc3ccc(C(=O)N[C@@H](CCC(=O)O)C(=O)O)cc3)c2c(=O)[nH]1` [AGF291], the IC50 stood at 0.282 µM.
